Data published in PMC6405930, “Conservation of the Amyloid Interactome Across Diverse Fibrillar Structures” (Scientific Reports, 2019).

Key:
[1] = system: T1, FAS4-AD aggregates; assay: Fibril incubation with plasma, quantitative MS/MS of bound proteins; type: binding, human; design: key to Identification status of plasma protein bound: FAS4-AD: *: Identified, but not quantified; —: Not identified in any of the samples; details: for Relative composition of plasma proteins bound: FAS4-AD: 50:1 w/w plasma protein:fibril; for Identification status of plasma protein bound: FAS4-AD: symbol cells
T1 construct: aggregates of a mutated version of the FAS1-4 domain of TGFBIp
Procedure: (§1) Plasma and CSF solutions were centrifuged (40,000 g, 20 min) to remove any aggregates. The protein concentration was determined using 280 nm absorbance assuming 1 Abs = 1 mg/mL. […] Control samples (without fibril material) were prepared similarly. All samples were incubated at room temperature for one hour under gentle agitation. Fibrils and fibril-bound proteins were pelleted by centrifugation at 17,000 g for 30 minutes. The supernatant (175 μL) was removed and the aggregate was re-suspended in 175 μL PBS and pelleted again before further preparation for gel analysis and spin-filter assisted digest for quantitative MS/MS.
(§2) The fibril-protein pellets were transferred to spin-filters (0.22 μm), washed twice in PBS (100 μL) and once in 1 M NaCl (100 μL). The fibrils and fibril-bound proteins were dissolved by one-hour incubation in 100 μL 6 M guanidinium chloride followed by elution from the spin-filter. The eluted proteins were loaded onto a 3 kDa MWCO filter unit for filter-assisted unfolding, reduction, alkylation, and trypsin digestion. In brief, samples were washed twice in 8 M urea, once in 8 M urea with 50 mM DTT, once in 8 M urea with 50 mM iodoaceteamide, and twice in 8 M Urea. The filter units were dried by centrifugation (14,000 g in 30 minutes) after every addition. Trypsin digestion was carried out with 0.25 μg sequencing grade trypsin from Sigma Aldrich in 50 mM ammonium bicarbonate overnight at 37 °C. The tryptic peptides were collected by centrifugation, acidified with TFA (0.1%) and micro-purified using POROS R2 column material (Applied Biosystems) packed in P200 pipette tips (Sarstedt).
(§3) LC-MS/MS analyses were performed on an EASY-nLC II system (Thermo Fisher Scientific) connected to a TripleTOF 5600+ mass spectrometer (Sciex) equipped with a NanoSpray III source (Sciex) and operated under Analyst TF 1.6.0 control.
(§4) The micro-purified tryptic peptides were dissolved in 0.1% formic acid, injected and trapped on an in-house packed trap column (2 cm × 100 μm I.D) with RP ReproSil-Pur C18-AQ 3 μm resin (Dr. Maisch GmbH). Peptides were eluted from the trap column and separated on a 15 cm analytical column (75 μm i.d.) packed in-house in a pulled emitter with RP ReproSil-Pur C18-AQ 3 μm resin (Dr. Maisch GmbH). Elution from the analytical column was performed with a linear gradient from 5% to 35% phase B (90% acetonitrile with 0.1% formic acid) over 20 min for protein identification and 50 min for quantitative analysis, respectively.
(§5) All samples were analysed three times, yielding nine MS/MS experiments for each fibril for both plasma and CSF. For the area-based extracted ion chromatogram (XIC) quantification, the acquisition method was set up as an information-dependent acquisition (IDA) experiment collecting up to 25 MS/MS spectra in each 1.6 sec cycle using an exclusion window of 6 sec.
(§6) XIC quantification was based on the average ion intensity of the three most abundant peptides for each protein. Only proteins quantified in at least four out of nine MS/MS experiments per fibril were included in the quantification. The total ion scores were visualized after grouping the proteins according to function (Figure S11).
(§7) For each MS/MS experiment, the ion intensities of the individual proteins were normalized to the total ion intensity of that MS/MS experiment to achieve a relative protein composition. The contribution of each protein was averaged over all nine MS/MS experiments (Tables 1 and 2).

[2] = target: T2, αSN fibrils (Homo sapiens, UniProt P37840); assay: as above; type: binding; design: key to Identification status of plasma protein bound: αSN: *: Identified, but not quantified; —: Not identified in any of the samples; details: for Identification status of plasma protein bound: αSN: symbol cells; for Relative composition of plasma proteins bound: αSN: 50:1 w/w plasma protein:fibril
Procedure: as §1, §2, §3, §4, §5, §6, §7

[3] = target: T2, αSN fibrils; assay: Fibril incubation with CSF, quantitative MS/MS of bound proteins; type: binding; design: key to Identification status of CSF protein bound: αSN: *: Identified, but not quantified; —: Not identified in any of the samples; details: symbol cells
Procedure: as §1, §2, §3, §4, §5, §6, §7

[4] = system: T3, Ab2 fibrils; assay: as above; type: binding, human; design: key to Identification status of CSF protein bound: Ab2: *: Identified, but not quantified; —: Not identified in any of the samples; details: symbol cells
T3 construct: Two structurally distinct fibrils of the Aβ(1–40) peptide associated with AD
Procedure: as §1, §2, §3, §4, §5, §6, §7

[5] = system: T4, Ab1 fibrils; assay: as above; type: binding, human; details: 4:1 w/w CSF protein:fibril
T4 construct: Synthetic amyloid β peptide 1–40 was purchased from Caslo Aps (Lyngby, Denmark); purchased Caslo Aps (Lyngby, Denmark); host or cells: synthetic peptide
Procedure: as §1, §2, §3, §4, §5, §6, §7

[6] = target: T5, C-36 fibrils (Homo sapiens, UniProt P01009); assay: as above; type: binding; design: key to Identification status of CSF protein bound: C-36: *: Identified, but not quantified; —: Not identified in any of the samples; details: for Relative composition of CSF proteins bound: C-36: 4:1 w/w CSF protein:fibril
T5 construct: the 36 residue C-terminal fragment of α1-antitrypsin (C-36)
T5 sequence (P01009 383-418 limits assumed): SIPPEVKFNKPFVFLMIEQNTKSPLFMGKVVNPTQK
Procedure: as §1, §2, §3, §4, §5, §6, §7

[7] = target: T6, glucagon fibrils (Homo sapiens, UniProt P01275); assay: as above; type: binding; details: 4:1 w/w CSF protein:fibril
T6 construct: fibrils of the peptide hormone glucagon
T6 sequence (P01275 53-81 limits assumed): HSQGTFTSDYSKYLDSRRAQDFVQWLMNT
Procedure: as §1, §2, §3, §4, §5, §6, §7

[8] = system: T4, Ab1 fibrils; assay: Fibril incubation with plasma, quantitative MS/MS of bound proteins; type: binding, human; details: 50:1 w/w plasma protein:fibril
Procedure: (§8) Plasma and CSF solutions were centrifuged (40,000 g, 20 min) to remove any aggregates. The protein concentration was determined using 280 nm absorbance assuming 1 Abs = 1 mg/mL. […] Control samples (without fibril material) were prepared similarly. All samples were incubated at room temperature for one hour under gentle agitation. Fibrils and fibril-bound proteins were pelleted by centrifugation at 17,000 g for 30 minutes. The supernatant (175 μL) was removed and the aggregate was re-suspended in 175 μL PBS and pelleted again before further preparation for gel analysis and spin-filter assisted digest for quantitative MS/MS.
as §2, §3, §4, §5, §6, §7

[9] = system: T3, Ab2 fibrils; assay: as above; type: binding, human; details: 50:1 w/w plasma protein:fibril
Procedure: as §1, §2, §3, §4, §5, §6, §7

[10] = target: T6, glucagon fibrils; assay: as above; type: binding; details: 50:1 w/w plasma protein:fibril
Procedure: as §1, §2, §3, §4, §5, §6, §7

[11] = system: T1, FAS4-AD aggregates; assay: Fibril incubation with CSF, quantitative MS/MS of bound proteins; type: binding, human; design: key to Identification status of CSF protein bound: FAS4-AD: *: Identified, but not quantified; —: Not identified in any of the samples; details: symbol cells
Procedure: as §1, §2, §3, §4, §5, §6, §7

[12] = target: T5, C-36 fibrils; assay: Fibril incubation with plasma, quantitative MS/MS of bound proteins; type: binding; design: key to Identification status of plasma protein bound: C-36: *: Identified, but not quantified; —: Not identified in any of the samples; details: for Relative composition of plasma proteins bound: C-36: 50:1 w/w plasma protein:fibril
Procedure: as §1, §2, §3, §4, §5, §6, §7

[13] = system: fibril systems (Ab1, Ab2, glucagon, αSN and C-36); assay: Fibril incubation with plasma, quantitative MS/MS, span over the fibril systems; type: binding, human
Procedure: as §8
The fibril-protein pellets were transferred to spin-filters (0.22 μm), washed twice in PBS (100 μL) and once in 1 M NaCl (100 μL). The fibrils and fibril-bound proteins were dissolved by one-hour incubation in 100 μL 6 M guanidinium chloride followed by elution from the spin-filter. […]
The micro-purified tryptic peptides were dissolved in 0.1% formic acid, injected and trapped on an in-house packed trap column (2 cm × 100 μm I.D) with RP ReproSil-Pur C18-AQ 3 μm resin (Dr. Maisch GmbH). […] Elution from the analytical column was performed with a linear gradient from 5% to 35% phase B (90% acetonitrile with 0.1% formic acid) over 20 min for protein identification and 50 min for quantitative analysis, respectively.
All samples were analysed three times, yielding nine MS/MS experiments for each fibril for both plasma and CSF. For the area-based extracted ion chromatogram (XIC) quantification, the acquisition method was set up as an information-dependent acquisition (IDA) experiment collecting up to 25 MS/MS spectra in each 1.6 sec cycle using an exclusion window of 6 sec. […]
XIC quantification was based on the average ion intensity of the three most abundant peptides for each protein. Only proteins quantified in at least four out of nine MS/MS experiments per fibril were included in the quantification. […]

[14] = system: T3, Ab2 fibrils; assay: Determination of the binding capacity (dye depletion from supernatant); design: species or system human; details: 2 nmol dye (20 µM) with 10 μg fibril material, one hour
Procedure: (§9) Control samples (without fibril material) were prepared similarly. Fibrils and fibril-bound ligand were pelleted by centrifugation (17,000 g, 30 min) and the supernatant (90 μL) was transferred to a 96 well half-area plate (Corning 3881).

[15] = system: T4, Ab1 fibrils; assay: as above; design: species or system human; details: 2 nmol dye (20 µM) with 10 μg fibril material, one hour
Procedure: as §9

[16] = target: T2, αSN fibrils; assay: as above; details: 2 nmol dye (20 µM) with 10 μg fibril material, one hour
Procedure: as §9

[17] = target: T5, C-36 fibrils; assay: as above; details: 2 nmol dye (20 µM) with 10 μg fibril material, one hour
Procedure: as §9

[18] = target: T6, glucagon fibrils; assay: as above; details: 2 nmol dye (20 µM) with 10 μg fibril material, one hour
Procedure: as §9

| Compound | Relative composition of plasma proteins bound: FAS4-AD [1] | Identification status of plasma protein bound: αSN [2] | Identification status of CSF protein bound: αSN [3] | Identification status of CSF protein bound: Ab2 [4] | Relative composition of CSF proteins bound: Ab1 [5] | Relative composition of CSF proteins bound: Glucagon [7] | Relative composition of plasma proteins bound: Ab1 [8] | Relative composition of plasma proteins bound: Ab2 [9] | Relative composition of plasma proteins bound: Glucagon [10] | Identification status of CSF protein bound: FAS4-AD [11] | Relative composition of plasma proteins bound: αSN [2] | Relative composition of CSF proteins bound: C-36 [6] | Relative composition of plasma proteins bound: C-36 [12] | Identification status of plasma protein bound: FAS4-AD [1] | also measured |
| --- | --- | --- | --- | --- | --- | --- | --- | --- | --- | --- | --- | --- | --- | --- | --- |
| α1-antitrypsin: plasma/CSF protein bound to fibrils | 1.4 ± 0.5 % of total protein | * | * | * | 0.5 ± 0.2 % of total protein | 1.0 ± 0.2 % of total protein | 0.4 ± 0.0 % of total protein | 0.4±0.0 % of total protein | 0.6 ± 0.0 % of total protein | * |  |  |  |  | Identification status of CSF protein bound: C-36 ([6]; symbol cells): *; Identification status of plasma protein bound: C-36 ([12]; symbol cells): * |
| Apolipoprotein A-II: plasma/CSF protein bound to fibrils | 1.8 ± 0.2 % of total protein |  | — | * | 1.0 ± 0.3 % of total protein | 0.6 ± 0.2 % of total protein | 1.1 ± 0.2 % of total protein | 1.2 ± 0.2 % of total protein | 6.2 ± 0.6 % of total protein | — | 0.9 ± 0.3 % of total protein | 0.9 ± 0.1 % of total protein | 1.9 ± 0.5 % of total protein |  |  |
| Apolipoprotein B-100: plasma protein bound to fibrils |  |  |  |  |  |  | 0.6 ± 0.1 % of total protein | 0.5 ± 0.2 % of total protein | 0.4 ± 0.0 % of total protein |  | 0.2 ± 0.1 % of total protein |  | 0.1 ± 0.0 % of total protein | * | contribution to the fibril interactomes [13]: 0.4% |
| Complement C1s subcomponent: plasma/CSF protein bound to fibrils |  | * | — | * | 0.2 ± 0.0 % of total protein | 0.2 ± 0.0 % of total protein | 0.3 ± 0.0 % of total protein | 0.7 ± 0.1 % of total protein | 0.2 ± 0.0 % of total protein | — |  | 0.7 ± 0.2 % of total protein | 0.4 ± 0.1 % of total protein | — |  |
| O=C(O)c1cc(/C=C/c2ccc(/C=C/c3ccc(O)c(C(=O)O)c3)c(F)c2)ccc1O [FSB, (E,E)-1-fluoro-2,5-bis-(3-hydroxycarbonyl-4-hydroxy)styrylbenzene] |  |  |  |  |  |  |  |  |  |  |  |  |  |  | Ligand bound (binding capacity) [14]: 54 nmol/mg fibril; Ligand bound (binding capacity) [15]: 45 nmol/mg fibril; Ligand bound (binding capacity) [16]: 123 nmol/mg fibril; Ligand bound (binding capacity) [17]: 197 nmol/mg fibril; Ligand bound (binding capacity) [18]: 128 nmol/mg fibril |
